Laboratory results taken from ChEMBL document CHEMBL5291721, “A preclinical secondary pharmacology resource illuminates target-adverse drug reaction associations of marketed drugs” (Nat Commun, 2023).

Legend:
[1] = molecular target: Prostaglandin G/H synthase 1 (Homo sapiens, UniProt P23219); type: functional
[2] = molecular target: T1, 5-hydroxytryptamine receptor 1A (Homo sapiens, UniProt P08908)
T1 sequence (P08908 whole entry): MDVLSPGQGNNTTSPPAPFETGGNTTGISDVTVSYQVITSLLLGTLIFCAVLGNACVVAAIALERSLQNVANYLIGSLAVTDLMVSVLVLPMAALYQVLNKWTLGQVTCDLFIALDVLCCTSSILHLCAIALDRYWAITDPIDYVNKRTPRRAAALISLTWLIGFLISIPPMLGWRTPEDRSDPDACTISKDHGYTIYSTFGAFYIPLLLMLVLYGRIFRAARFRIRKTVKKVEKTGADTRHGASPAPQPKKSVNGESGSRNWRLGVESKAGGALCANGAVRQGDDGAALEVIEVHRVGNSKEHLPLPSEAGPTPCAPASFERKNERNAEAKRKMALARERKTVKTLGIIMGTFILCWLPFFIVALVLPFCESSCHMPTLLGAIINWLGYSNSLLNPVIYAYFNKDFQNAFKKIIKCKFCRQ

[3] = molecular target: Sodium-dependent dopamine transporter (Homo sapiens, UniProt Q01959)
Sodium-dependent dopamine transporter, sequence (Q01959 whole entry): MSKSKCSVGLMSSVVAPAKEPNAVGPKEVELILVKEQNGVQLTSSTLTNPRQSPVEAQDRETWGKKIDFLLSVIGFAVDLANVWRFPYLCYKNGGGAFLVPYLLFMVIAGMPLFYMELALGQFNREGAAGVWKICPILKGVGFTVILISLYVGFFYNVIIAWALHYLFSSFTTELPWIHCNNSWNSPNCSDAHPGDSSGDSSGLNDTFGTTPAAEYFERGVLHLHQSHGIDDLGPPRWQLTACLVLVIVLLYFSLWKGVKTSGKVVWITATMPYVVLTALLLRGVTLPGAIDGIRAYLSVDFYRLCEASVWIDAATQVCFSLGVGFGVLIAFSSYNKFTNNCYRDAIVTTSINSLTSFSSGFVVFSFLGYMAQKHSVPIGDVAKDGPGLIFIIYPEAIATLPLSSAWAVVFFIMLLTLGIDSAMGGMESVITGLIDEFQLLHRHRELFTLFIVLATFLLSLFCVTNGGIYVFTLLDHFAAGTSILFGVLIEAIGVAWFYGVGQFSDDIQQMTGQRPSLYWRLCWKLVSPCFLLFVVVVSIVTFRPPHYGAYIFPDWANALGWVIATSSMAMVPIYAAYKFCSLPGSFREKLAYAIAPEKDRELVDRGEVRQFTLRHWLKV

[4] = molecular target: T2, Muscarinic acetylcholine receptor M2 (Homo sapiens, UniProt P08172)
T2 sequence (P08172 whole entry): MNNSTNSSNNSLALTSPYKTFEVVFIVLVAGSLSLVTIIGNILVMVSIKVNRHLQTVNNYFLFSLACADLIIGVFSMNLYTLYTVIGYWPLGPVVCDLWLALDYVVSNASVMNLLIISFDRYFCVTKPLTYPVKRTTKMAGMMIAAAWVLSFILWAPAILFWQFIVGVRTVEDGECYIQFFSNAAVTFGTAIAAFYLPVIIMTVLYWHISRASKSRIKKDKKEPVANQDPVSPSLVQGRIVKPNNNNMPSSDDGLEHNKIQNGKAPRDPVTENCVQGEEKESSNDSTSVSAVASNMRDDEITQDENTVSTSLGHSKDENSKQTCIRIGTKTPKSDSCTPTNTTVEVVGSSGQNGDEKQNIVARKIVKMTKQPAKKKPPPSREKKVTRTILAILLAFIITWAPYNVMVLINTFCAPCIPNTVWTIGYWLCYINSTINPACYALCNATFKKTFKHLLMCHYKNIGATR

[5] = molecular target: T3, Thromboxane A2 receptor (Homo sapiens, UniProt P21731); type: functional, cell-based
T3 sequence (P21731 whole entry): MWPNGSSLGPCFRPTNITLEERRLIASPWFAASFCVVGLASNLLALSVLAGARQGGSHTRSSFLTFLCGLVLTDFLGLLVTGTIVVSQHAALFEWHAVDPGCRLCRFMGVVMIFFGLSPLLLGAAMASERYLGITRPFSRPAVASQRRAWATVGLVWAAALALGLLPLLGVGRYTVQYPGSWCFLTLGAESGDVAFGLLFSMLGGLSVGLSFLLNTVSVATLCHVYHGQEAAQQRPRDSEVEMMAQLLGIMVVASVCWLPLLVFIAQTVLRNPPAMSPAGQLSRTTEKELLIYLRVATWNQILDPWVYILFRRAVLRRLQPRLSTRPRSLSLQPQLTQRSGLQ

[6] = molecular target: cGMP-inhibited 3',5'-cyclic phosphodiesterase 3A (Homo sapiens, UniProt Q14432); type: functional
cGMP-inhibited 3',5'-cyclic phosphodiesterase 3A, sequence (Q14432 whole entry): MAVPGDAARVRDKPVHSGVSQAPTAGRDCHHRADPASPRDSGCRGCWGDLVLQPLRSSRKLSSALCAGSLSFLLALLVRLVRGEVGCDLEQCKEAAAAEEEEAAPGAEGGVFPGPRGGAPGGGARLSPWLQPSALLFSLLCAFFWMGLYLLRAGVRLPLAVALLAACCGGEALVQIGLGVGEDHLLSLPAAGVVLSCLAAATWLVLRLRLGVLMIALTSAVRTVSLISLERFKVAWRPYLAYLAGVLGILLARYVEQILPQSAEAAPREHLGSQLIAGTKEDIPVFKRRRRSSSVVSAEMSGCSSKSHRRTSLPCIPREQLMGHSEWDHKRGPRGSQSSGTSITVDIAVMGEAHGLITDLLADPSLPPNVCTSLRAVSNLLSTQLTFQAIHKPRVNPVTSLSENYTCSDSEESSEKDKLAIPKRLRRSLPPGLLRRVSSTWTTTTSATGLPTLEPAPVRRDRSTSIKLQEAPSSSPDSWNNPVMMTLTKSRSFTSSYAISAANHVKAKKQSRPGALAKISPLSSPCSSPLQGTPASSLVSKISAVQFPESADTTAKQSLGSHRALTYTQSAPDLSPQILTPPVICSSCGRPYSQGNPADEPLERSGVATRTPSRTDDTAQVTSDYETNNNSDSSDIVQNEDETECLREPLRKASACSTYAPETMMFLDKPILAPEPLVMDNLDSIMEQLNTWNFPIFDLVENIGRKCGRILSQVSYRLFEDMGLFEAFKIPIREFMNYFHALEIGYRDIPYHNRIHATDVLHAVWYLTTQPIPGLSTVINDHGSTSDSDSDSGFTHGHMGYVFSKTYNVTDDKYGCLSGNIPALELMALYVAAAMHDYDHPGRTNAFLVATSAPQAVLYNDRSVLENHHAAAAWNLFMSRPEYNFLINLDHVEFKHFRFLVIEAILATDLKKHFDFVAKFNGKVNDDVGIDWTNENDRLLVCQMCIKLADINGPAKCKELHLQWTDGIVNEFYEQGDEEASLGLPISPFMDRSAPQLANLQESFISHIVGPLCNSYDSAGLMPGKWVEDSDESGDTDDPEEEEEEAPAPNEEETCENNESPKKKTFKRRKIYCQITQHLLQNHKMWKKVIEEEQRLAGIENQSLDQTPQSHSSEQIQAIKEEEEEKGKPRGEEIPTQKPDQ

[7] = molecular target: T4, Alpha-2A adrenergic receptor (Homo sapiens, UniProt P08913)
T4 sequence (P08913 whole entry): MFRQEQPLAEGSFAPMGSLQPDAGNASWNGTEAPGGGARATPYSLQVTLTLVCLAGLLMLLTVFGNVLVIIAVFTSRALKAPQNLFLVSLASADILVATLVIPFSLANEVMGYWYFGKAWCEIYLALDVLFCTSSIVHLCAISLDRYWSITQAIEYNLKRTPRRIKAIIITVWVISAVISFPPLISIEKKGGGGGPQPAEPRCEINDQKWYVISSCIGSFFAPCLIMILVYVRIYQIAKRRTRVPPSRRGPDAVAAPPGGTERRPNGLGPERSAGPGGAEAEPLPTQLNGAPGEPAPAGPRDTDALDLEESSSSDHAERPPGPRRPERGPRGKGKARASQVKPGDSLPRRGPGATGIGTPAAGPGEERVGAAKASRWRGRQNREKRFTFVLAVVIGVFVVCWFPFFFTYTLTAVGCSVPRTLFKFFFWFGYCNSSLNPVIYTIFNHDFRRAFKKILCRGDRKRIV

[8] = molecular target: D(3) dopamine receptor (Homo sapiens, UniProt P35462)
D(3) dopamine receptor, sequence (P35462 whole entry): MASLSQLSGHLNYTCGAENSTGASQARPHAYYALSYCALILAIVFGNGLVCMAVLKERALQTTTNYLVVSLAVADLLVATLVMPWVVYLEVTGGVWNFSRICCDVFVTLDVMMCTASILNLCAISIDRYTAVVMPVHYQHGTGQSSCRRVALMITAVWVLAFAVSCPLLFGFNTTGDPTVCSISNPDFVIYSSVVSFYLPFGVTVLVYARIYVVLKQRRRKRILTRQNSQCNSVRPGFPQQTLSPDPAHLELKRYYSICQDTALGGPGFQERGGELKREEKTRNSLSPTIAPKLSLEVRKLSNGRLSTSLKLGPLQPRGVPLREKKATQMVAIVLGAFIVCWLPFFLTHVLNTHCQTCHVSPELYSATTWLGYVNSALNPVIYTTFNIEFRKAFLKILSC

[9] = molecular target: 3',5'-cyclic-AMP phosphodiesterase 4A (Homo sapiens, UniProt P27815); type: functional
3',5'-cyclic-AMP phosphodiesterase 4A, sequence (P27815 whole entry): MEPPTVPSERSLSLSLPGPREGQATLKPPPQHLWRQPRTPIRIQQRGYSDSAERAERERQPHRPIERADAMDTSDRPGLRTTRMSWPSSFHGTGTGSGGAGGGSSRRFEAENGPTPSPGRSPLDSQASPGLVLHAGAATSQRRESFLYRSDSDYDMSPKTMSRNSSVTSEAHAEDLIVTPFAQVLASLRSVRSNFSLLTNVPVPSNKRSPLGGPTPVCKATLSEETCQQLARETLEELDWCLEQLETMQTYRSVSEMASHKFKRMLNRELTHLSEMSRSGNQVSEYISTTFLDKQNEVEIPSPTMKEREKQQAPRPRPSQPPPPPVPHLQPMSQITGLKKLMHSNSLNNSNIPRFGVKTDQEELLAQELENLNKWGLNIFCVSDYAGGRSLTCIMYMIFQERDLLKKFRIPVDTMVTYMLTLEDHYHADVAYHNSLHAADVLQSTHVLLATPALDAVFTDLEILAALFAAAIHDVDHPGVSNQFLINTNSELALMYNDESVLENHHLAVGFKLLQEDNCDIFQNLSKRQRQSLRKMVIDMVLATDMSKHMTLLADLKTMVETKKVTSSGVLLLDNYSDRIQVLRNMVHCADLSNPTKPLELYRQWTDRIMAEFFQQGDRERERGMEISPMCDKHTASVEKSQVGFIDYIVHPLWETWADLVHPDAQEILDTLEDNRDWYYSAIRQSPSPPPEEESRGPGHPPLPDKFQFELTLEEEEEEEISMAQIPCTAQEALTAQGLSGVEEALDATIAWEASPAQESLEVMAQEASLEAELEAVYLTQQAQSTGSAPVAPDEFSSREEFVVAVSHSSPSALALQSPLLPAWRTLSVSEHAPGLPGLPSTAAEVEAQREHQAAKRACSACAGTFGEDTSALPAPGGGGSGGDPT

[10] = molecular target: Voltage-gated inwardly rectifying potassium channel KCNH2 (Homo sapiens, UniProt Q12809); type: functional; conditions: read-out: AC50
Voltage-gated inwardly rectifying potassium channel KCNH2, sequence (Q12809 whole entry): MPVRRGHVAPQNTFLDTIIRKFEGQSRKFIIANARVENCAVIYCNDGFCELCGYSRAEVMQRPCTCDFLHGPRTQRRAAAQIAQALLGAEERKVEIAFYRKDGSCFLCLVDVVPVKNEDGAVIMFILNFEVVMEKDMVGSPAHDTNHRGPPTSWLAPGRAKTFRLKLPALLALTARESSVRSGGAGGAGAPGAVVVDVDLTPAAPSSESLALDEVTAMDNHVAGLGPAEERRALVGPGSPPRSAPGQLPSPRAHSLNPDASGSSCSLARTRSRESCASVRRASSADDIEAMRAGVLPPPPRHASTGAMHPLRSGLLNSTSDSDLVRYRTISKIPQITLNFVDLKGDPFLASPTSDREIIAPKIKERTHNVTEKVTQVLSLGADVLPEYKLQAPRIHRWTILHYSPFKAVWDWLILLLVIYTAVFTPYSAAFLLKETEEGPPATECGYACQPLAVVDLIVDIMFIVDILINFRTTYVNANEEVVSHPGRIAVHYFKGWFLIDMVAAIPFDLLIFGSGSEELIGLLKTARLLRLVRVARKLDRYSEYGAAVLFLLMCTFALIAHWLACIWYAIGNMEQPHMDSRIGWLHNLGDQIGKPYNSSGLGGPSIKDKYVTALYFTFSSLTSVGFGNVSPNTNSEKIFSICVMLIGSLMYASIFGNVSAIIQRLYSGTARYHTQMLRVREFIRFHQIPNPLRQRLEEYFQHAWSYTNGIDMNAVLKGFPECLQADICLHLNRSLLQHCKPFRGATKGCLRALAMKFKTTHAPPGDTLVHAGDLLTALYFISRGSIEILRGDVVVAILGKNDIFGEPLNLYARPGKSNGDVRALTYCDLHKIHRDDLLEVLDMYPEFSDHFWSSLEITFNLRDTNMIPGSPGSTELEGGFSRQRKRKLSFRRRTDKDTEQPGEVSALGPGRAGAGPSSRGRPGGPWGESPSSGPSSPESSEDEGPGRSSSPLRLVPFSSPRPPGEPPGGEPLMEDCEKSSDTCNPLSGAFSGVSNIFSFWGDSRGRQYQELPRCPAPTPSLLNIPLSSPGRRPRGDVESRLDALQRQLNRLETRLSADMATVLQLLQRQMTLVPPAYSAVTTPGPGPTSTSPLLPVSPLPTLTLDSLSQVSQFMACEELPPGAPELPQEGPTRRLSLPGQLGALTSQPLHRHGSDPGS

[11] = molecular target: T5, Adenosine receptor A3 (Homo sapiens, UniProt P0DMS8)
T5 sequence (P0DMS8 whole entry): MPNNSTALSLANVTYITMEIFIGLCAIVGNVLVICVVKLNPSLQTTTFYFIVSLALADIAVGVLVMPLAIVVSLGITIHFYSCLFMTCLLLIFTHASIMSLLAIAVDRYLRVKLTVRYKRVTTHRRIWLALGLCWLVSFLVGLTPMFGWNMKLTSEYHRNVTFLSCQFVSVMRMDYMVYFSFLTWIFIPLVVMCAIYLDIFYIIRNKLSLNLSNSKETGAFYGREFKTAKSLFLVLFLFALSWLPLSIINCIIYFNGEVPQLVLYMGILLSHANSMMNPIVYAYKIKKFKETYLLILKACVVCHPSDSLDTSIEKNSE

[12] = molecular target: T6, Alpha-1A adrenergic receptor (Homo sapiens, UniProt P35348); type: functional, cell-based
T6 sequence (P35348 whole entry): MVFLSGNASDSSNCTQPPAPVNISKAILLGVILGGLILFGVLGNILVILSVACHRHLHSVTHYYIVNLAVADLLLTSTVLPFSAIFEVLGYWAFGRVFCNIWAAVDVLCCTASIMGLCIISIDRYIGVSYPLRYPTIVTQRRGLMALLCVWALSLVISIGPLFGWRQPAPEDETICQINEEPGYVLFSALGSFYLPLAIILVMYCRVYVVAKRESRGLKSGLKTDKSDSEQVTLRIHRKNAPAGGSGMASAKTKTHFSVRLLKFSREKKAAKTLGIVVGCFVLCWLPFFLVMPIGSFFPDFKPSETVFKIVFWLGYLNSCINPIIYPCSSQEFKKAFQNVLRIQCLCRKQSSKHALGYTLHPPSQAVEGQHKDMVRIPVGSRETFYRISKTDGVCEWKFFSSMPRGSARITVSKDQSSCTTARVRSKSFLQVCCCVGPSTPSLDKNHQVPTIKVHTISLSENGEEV
Note: assay procedure not described here.

Prostaglandin G/H synthase 1, sequence (P23219 whole entry): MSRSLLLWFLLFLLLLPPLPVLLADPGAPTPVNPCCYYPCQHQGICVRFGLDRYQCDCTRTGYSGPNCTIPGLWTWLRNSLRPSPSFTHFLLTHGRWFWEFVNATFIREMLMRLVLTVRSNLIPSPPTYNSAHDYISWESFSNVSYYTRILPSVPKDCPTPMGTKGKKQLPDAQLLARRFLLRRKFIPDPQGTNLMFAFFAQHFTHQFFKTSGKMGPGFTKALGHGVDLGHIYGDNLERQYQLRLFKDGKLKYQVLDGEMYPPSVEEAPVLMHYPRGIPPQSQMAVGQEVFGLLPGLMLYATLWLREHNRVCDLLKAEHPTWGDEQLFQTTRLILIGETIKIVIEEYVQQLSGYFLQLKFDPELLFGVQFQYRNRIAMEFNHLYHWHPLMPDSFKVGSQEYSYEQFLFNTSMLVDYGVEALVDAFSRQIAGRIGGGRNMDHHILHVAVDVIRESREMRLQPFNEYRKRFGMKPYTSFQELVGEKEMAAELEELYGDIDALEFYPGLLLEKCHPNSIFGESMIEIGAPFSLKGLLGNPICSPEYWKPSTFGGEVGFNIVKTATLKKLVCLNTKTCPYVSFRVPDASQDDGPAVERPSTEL

SMILES	AC50 [1] [µM]	AC50 [2] [µM]	AC50 [3] [µM]	AC50 [4] [µM]	AC50 [5] [µM]	AC50 [6] [µM]	AC50 [7] [µM]	AC50 [8] [µM]	AC50 [9] [µM]	AC50 [10] [µM]	AC50 [11] [µM]	AC50 [12] [µM]
CSCC[C@H](N)C(=O)O [METHIONINE]	> 30	> 30	> 30	> 30	> 30	> 30	> 30	> 30	> 30	–	–	–
CC(NCCC(c1ccccc1)c1ccccc1)c1ccccc1 (configuration not stated) [FENDILINE]	> 30	14.9	3.48	6.17	–	> 30	5.89	9.87	> 30	1.3	26.8	25.8
CC(C)N1CCN(c2ccc(OCC3COC(Cn4cncn4)(c4ccc(Cl)cc4Cl)O3)cc2)CC1 (configuration not stated) [TERCONAZOLE]	> 30	> 30	7.14	10.9	–	> 30	2	7.12	> 30	6.9	> 30	> 30
CN1CCCC(CC2c3ccccc3Sc3ccccc32)C1 (configuration not stated) [METHIXENE]	> 30	1.9	> 30	0.0054	–	> 30	4.82	0.742	> 30	3.1	> 30	> 30
CC1(C)C[C@@H]1C(=O)N/C(=C\CCCCSC[C@H](N)C(=O)O)C(=O)O [CILASTATIN]	> 30	> 30	> 30	> 30	> 30	> 30	> 30	> 30	> 30	> 30	–	> 30
N=C(N)NC(=O)c1nc(Cl)c(N)nc1N [AMILORIDE]	> 30	11.1	> 30	> 30	> 30	> 30	> 30	> 30	> 30	–	–	> 30
C[C@@H](O)[C@H]1C(=O)N2C(C(=O)O)=C(S[C@@H]3CN[C@H](C(=O)Nc4cccc(C(=O)O)c4)C3)[C@H](C)[C@H]12	19.9	> 30	> 30	> 30	> 30	> 30	> 30	> 30	1.62	–	–	–
COc1c(OCCCN2CCOCC2)ccc2c1N=C(NC(=O)c1cnc(N)nc1)N1CCN=C21 [COPANLISIB]	> 30	> 30	> 30	5.64	> 30	> 30	> 30	> 30	> 30	–	–	> 30
Cc1ccc(O)c([C@H](CCN(C(C)C)C(C)C)c2ccccc2)c1 [TOLTERODINE]	–	> 30	> 30	–	–	–	> 30	> 30	–	–	–	> 30
